Tests used:
[1] = system: human acute lymphoblastic leukemia RS4;11 mouse subcutaneous xenograft tumor; assay: Therapeutic effect on RS4;11 mouse subcutaneous xenograft tumor; type: in vivo; settings: NOD-Scid mice, RS4;11 xenograft; for Tolerability in tumor-bearing mice (weight loss) / Tumor rate TGI (%) inhibition: 10 mg/kg IV QW; for Tumor rate TGI (%) inhibition: D 20; for Mean tumor volume (mm^3) D 0: day 0, 10 mg/kg IV QW; for Mean tumor volume (mm^3) D 20: day 20, 10 mg/kg IV QW
Protocol: This experiment was performed to evaluate and compare the therapeutic effect of the compounds of the present disclosure on human acute lymphoblastic leukemia RS4;11 mouse subcutaneous xenograft tumor.
NOD-Scid mice, 5 weeks old, purchased from Beijing Huafukang Biotechnology Co., Ltd. Production license No.: SCXK (Beijing) 2019-0008; animal certification No.: 110322211100992176. Housing environment: SPF grade. 6 mice in a vehicle group, and 8 mice in a compound group.
5 mg of compound was added to 250 μL of DMSO and vortexed to provide a 20 mg/mL solution, which was diluted to the desired concentration with 30% hydroxypropyl-o-cyclodextrin (HP-3-CD, InnoStar Biotechnology Nantong Co., Ltd, Nantong).
Human acute lymphoblastic leukemia RS4;11 was purchased from American Type Culture Collection. RS4;11 cells were cultured in a 10 cm petri dish with an RPMI 1640 culture medium (Gibco) containing 10% fetal bovine serum (Gibco) and penicillin and streptomycin in an incubator at 37° C. containing 5% CO2. The cells were passaged twice a week, and then collected, counted and inoculated when in the exponential growth phase.
Each mouse was inoculated subcutaneously with 1×10^7 RS4;11 cells. When tumors grew to 100-200 mm^3, the mice were grouped according to tumor volume, intravenously (IV) injected with the drug once a week (QW) for a total of 4 times, at an injection volume of 0.1 mL/10 g body weight and a dose of 10 mg/kg.
The experimental index was to investigate the influence of the drug on the tumor growth, and the specific index was T/C % or tumor growth inhibition (TGI %).
Tumor diameters were measured twice a week with a vernier caliper and tumor volume (V) was calculated according to the following formula:
V=½×a×b^2 where a and b represent length and width, respectively.
T/C(%)=(T−T0)/(C−C0)×100,
where T and C represent the tumor volume of animals at the end of the experiment in the treatment group and control group, respectively;
T0 and C0 represent the tumor volume of animals at the beginning of the experiment in the treatment group and control group, respectively.
Tumor growth inhibition % (TGI %)=100−T/C(%).
When tumor started to regress, tumor growth inhibition % (TGI %)=100−(T−T0)/T0×100.
If the tumor had reduced volume compared with the initial volume, i.e., T<T0 or C<C0, it was defined as partial regression (PR) of tumor; if the tumor completely disappeared, it was defined as complete regression (CR) of tumor.

[2] = Pharmacokinetic evaluation in mice (iv, LC/MS/MS plasma); type: in vivo; settings: intravenous administration
Protocol: The drug concentration in the plasma of the test animals (mice) at different time points after intravenous (iv) administration of compound 10 and AZD4320 was determined by an LC/MS/MS method. The pharmacokinetic behavior of the compounds of the present disclosure in mice was studied and their pharmacokinetic profile was valuated.
18 C57 mice, female, randomly divided into 2 groups, purchased from Zhejiang Vital River Laboratory Animal Technology Co., Ltd, animal production license number: SCXK (Shanghai) 2017-0005.
A certain amount of compound 10 was weighed, dissolved by adding 5% by volume of DMSO and 5% Tween 80 (Shanghai Titan Scientific Co., Ltd.), and then prepared into a 0.1 mg/mL clear solution by adding 90% normal saline. Compound AZD4320 was formulated as with compound 10. […]
(§1) The mice were intravenously administered with compound 10, and 0.1 mL of blood was collected before the administration and 5 min, 0.25 h, 0.5 h, 1.0 h, 2.0 h, 4.0 h, 8.0 h, 11.0 h and 24.0 h after the administration, put into an EDTA-K2 anticoagulation tube, centrifuged at 10,000 rpm for 1 min (4° C.). Plasma was separated within 1 hour, and stored at −20° C. for testing. The process from blood collection to centrifugation was performed under an ice bath.
as §1, with “compound AZD4320,” for “compound 10,”
The content of the test compounds at different concentrations in plasma of mice after the administration was determined: 10 μL of plasma of mice at each time point after the administration was mixed with 200 μL of methanol (containing an internal standard solution camptothecin (100 ng/mL)); the mixture was vortexed for 1 min, and centrifuged for 10 min (18,000 r/min), and 3 μL of supernatant was taken for LC/MS/MS analysis.

Compound | Tolerability in tumor-bearing mice (weight loss) [1] | Tumor rate TGI (%) inhibition [1] [%] | Mean tumor volume (mm^3) D 0 [1] [mm^3] | Mean tumor volume (mm^3) D 20 [1] [mm^3] | Clearance CLz/F ([2]; C57 mice, female, dose 1 mg/kg (table)) [mL/min/kg] | Clearance in mice (in words) ([2]; mice) | Elimination phase half-life compared with the positive control AZD 4320 (in words) ([2]; mice) | AUC(0-t) ([2]; mouse, plasma, C57 mice, female, dose 1 mg/kg (table), read-out: Area under curve AUC0-t) [ng·h/mL] | half-life ([2]; mouse, plasma, C57 mice, female, dose 1 mg/kg (table), read-out: Half-life T½ (converted)) [h] | MRT inf ([2]; mouse, plasma, C57 mice, female, dose 1 mg/kg (table), read-out: Mean retention time MRT 0-∞) [h] | concentration at 5 min ([2]; mouse, plasma, C57 mice, female, dose 1 mg/kg (table), read-out: Plasma Concentration C5 min) [ng/mL]
O=C(NS(=O)(=O)c1ccc(N[C@@H](CSc2ccccc2)C[C@@H]2CCCN2CCO)c(S(=O)(=O)C(F)(F)F)c1)c1ccc(N2CCC([C@@H](O)c3ccccc3-c3ccc(Cl)cc3)CC2)cc1 [Example 2-9, 4-(4-((R)-(4′-chloro-[1,1′-biphenyl]-2-yl)(hydroxy)methyl)piperidin-1-yl)-N-((4-(((R)-1-((S)-1-(2-hydroxyethyl)pyrrolidin-2-yl)-3-(phenylthio)propan-2-yl)amino)-3-((trifluoromethyl)sulfonyl)phenyl)sulfonyl)benzamide] | well tolerate | 72 | 151.0 | 612.7 |  |  |  |  |  |  | 
CN(CCO)CC[C@H](CSc1ccccc1)Nc1ccc(S(=O)(=O)NC(=O)c2ccc(N3CCC([C@@H](O)c4ccccc4-c4ccc(C(F)(F)F)cc4)CC3)cc2)cc1S(=O)(=O)C(F)(F)F [Example 2-10, 4-(4-((R)-hydroxy(4′-(trifluoromethyl)-[1,1′-biphenyl]-2-yl)methyl)piperidin-1-yl)-N-((4-(((R)-4-((2-hydroxyethyl)(methyl)amino)-1-(phenylthio)butan-2-yl)amino)-3-((trifluoromethyl)sulfonyl)phenyl)sulfonyl)benzamide] | well tolerate | 82 | 151.9 | 443.3 | 50.3 | cleared slowly | longer elimination phase half-life than the positive control AZD 4320 | 296 | 13 | 7.3 | 608

Source: patent publication US20230250077A1, “SULFONYLBENZAMIDE DERIVATIVE AND CONJUGATE THEREOF, PREPARATION METHOD THEREFOR AND USE THEREOF” (Jiangsu Hengrui Pharmaceuticals Co., Ltd., priority 2020, published 2023)
